Results on 1 molecule are retold here after patent US20070238755A1, “Methods to treat and/or prevent radiation- and/or chemical-induced toxicity in non-malignant tissue” (priority 2005, published 2007).

Common to all, as to type: in vivo, male Sprague-Dawley rats
For assay [1], the system named is irradiated rats (locally irradiated scrotal hernia containing a loop of distal ileum). Description: Morphometry of irradiated intestine, intestinal fibrosis Experiment 1. The conditions noted are these: trend is worded for vehicle-treated animals as compared to Formula 2-treated animals. The text has this: (§1) A particularly relevant animal model for radiation toxicity is described in Wang et al., J Thromb Haemost, 2(11):2027-2035 (2004)). In brief, a “scrotal hernia” containing a 4 cm loop of distal ileum is surgically created in male Sprague-Dawley rats. After a 3 week recovery period, the scrotal hernia is irradiated locally without exposing the rest of the animal to ionizing radiation.
(§2) Scrotal hernias were created in rats which subsequently received one of three different treatments subcutaneously: (i) vehicle control (i.e., 0.4% methyl cellulose); (ii) 10 mg/kg/day of Formula 2; and (iii) 15 mg/kg/day of Formula 2. The treatments were administered for 24 days total, starting the day before irradiation (i.e., from Day-1 to Day 23). […] After an additional 2 week observation period following treatment, the rats were euthanized and assessed for radiation toxicity using these endpoints: structural radiation injury, immunohistochemistry (e.g., neutrophil infiltration, collagen type III deposition, smooth muscle cell proliferation, extracellular matrix-associated TGF-β immunoreactivity, collagen type I deposition, macrophages (ED-2)), and morphomety.
The thickness of the intestinal wall proper (submucosa, muscularis externa, and subserosa, but excluding the mucosa) was measured with an eyepiece linear microruler. […]

For assay [2] the test system is unchanged. Description: Quantitative immunohistochemistry of irradiated intestine, intestinal fibrosis Experiment 1.
From the text: as §1
Scrotal hernias were created in rats which subsequently received one of three different treatments subcutaneously: (i) vehicle control (i.e., 0.4% methyl cellulose); (ii) 10 mg/kg/day of Formula 2; and (iii) 15 mg/kg/day of Formula 2. The treatments were administered for 24 days total, starting the day before irradiation (i.e., from Day-1 to Day 23). Beginning on Day 1, the scrotal hernia of each animal was irradiated locally by exposure to 5 Gy for 9 days. After an additional 2 week observation period following treatment, the rats were euthanized and assessed for radiation toxicity using these endpoints: structural radiation injury, immunohistochemistry (e.g., neutrophil infiltration, collagen type III deposition, smooth muscle cell proliferation, extracellular matrix-associated TGF-β immunoreactivity, collagen type I deposition, macrophages (ED-2)), and morphomety.
Quantitative immunohistochemistry was used to determine: (i) neutrophil infiltration by mycloperoxidase stalninig; (ii) intestinal smooth muscle cell proliferation using proliferation cell nuclear antigen (PCNA) labeling index; (iii) collagen deposition by staining for collagen types I and III; (iv) extracellular matrix-associated transforming growth factor (TGF)-β, and (v) macrophage ED-2. Immunohistochemical staining was performed with appropriate positive and negative controls using the avidin-biotin complex (ABC) technique previously described by Wang et al., J Thromb Haemost, 2(11):2027-2035 (2004). Primary antibodies, catalog numbers, incubation times, dilutions, and companies were: polyclonal antimyeloperoxidase antibody (A0398, 2 h, 1:100; Dako, Carpinteria, Calif., USA); monoclonal anti-PCNA antibody (NA03, 2 h, 1:100; Calbiochem, Cambridge, Mass., USA); polyclonal antibodies against collagen type I (1310-01, 2 h, 1:100 dilution; Southern Biotechnology Associates, Birmingham, Alab., USA); collagen type III (1330-01, 2 h, 1:100 dilution, Southern Biotechnology Associates); polyclonal rabbit anti-TGF-P antibody (AB-100-NA, 2 h, 1:300 dilution; R&D, Minneapolis, Minn., USA); and ED-2 (MCA342, 2 h, 1:100 dilution, Serotec, Rahway, N.C., USA).
Computerized image analysis was performed as previously described (see, Wang et al., Thromb Haemost, 87(1):122-128(2002); Wang et al., J Pharmacol Exp Ther, 297(1):35-42 (2001)). Neutrophil infiltration was assayed by identifying myeloperoxidase-positive cells as previously described (see, Wang et al., Thromb Haemost, 87(1):122-128(2002)). Areas positive for collagen types I and III deposition were measured as previously described 'see, Raviv et al., World J Urol, 15(l1):50-55 (1997); and Wang et al., Thromb Haemost, 87(1):122-128(2002)). Extracellular matrix-associated TGF-β immunoreactivity was measured as previously described (see, Richter et al., Radiother Oncol, 39(3):243-251 (1996)).
Differences in endpoints as a function of drug treatment (PAR-1 inhibitor vs. vehicle) were assessed using fixed-factor analysis of variance and post hoc comparisons with Newman-Keul's test (NCSS2000 for Windows 95, NCSS, Kaysville, Utah, USA). Univariate comparisons were performed with the Mann-Whitney U-test using StatXact 5 (Cytel Software, Cambridge, Mass., USA), a software package for exact non-parametric inference.

For assay [3] the test system is unchanged. The assay is described as follows: Structural radiation injury (Radiation Injury Score) in the scrotal hernia intestinal fibrosis model, Experiment 1. The conditions noted are these: 10 or 15 mg/kg/day s.c. for 24 days (Day -1 to Day 23); 5 Gy for 9 days; compared to vehicle; p=0.003 Jonckheere-Terpstra test; FIG. 1.
From the text: as §1
as §2, with “2.” for “2. The treatments were administered for 24 days total, starting the day before irradiation (i.e., from Day-1 to Day 23).”
Structural radiation injury was assessed in hematoxylin-eosin-stained sections using a radiation injury score system previously described (see, Langberg et al., Acta Oncol, 31(7):781-787 (1992); and Hauer-Jensen et al., Acta Radiol Oncol, 22(4):299-303 (1983)). […]

Where [4] appears, read: trend is worded for vehicle-treated animals as compared to Formula 2-treated animals, p=0.4 Jonckheere-Terpstra test.

Regarding `CCOC(=O)N[C@@H]1CC[C@@H]2[C@@H](C1)C[C@H]1C(=O)O[C@H](C)[C@H]1[C@H]2/C=C/c1ccc(-c2ccccn2)cn1` [Formula 2], the “intestinal wall thickening (thickness of the intestinal wall proper)” value in assay [1] (p=0.2 Jonckheere-Terpstra test) was “trend toward intestinal wall thickening in vehicle-treated animals”. In addition, the serosal thickening result in assay [1] (p=0.3 Jonckheere-Terpstra test) is “trend toward serosal thickening in vehicle-treated animals”. In addition, the “collagen type III deposition” value in assay [2] (10 or 15 mg/kg/day s.c. for 24 days, 5 Gy for 9 days, compared to vehicle, p=0.005 Jonckheere-Terpstra test, FIG. 3) is given as “reduced”. The “smooth muscle cell proliferation (PCNA positive cells)” value in assay [2] (10 or 15 mg/kg/day s.c. for 24 days, 5 Gy for 9 days, compared to vehicle, p=0.04 Jonckheere-Terpstra test, FIG. 4) is reported as “reduced”. The “neutrophil infiltration (myeloperoxidase-positive cells)” value in assay [2] (10 or 15 mg/kg/day s.c. for 24 days, 5 Gy for 9 days, compared to vehicle, p=0.05 Jonckheere-Terpstra test, FIG. 2) is “reduced”. Also, the “extracellular matrix-associated TGF-β immunoreactivity” value in assay [2] (trend is worded for vehicle-treated animals as compared to Formula 2-treated animals, p=0.1 Jonckheere-Terpstra test) was “trend toward increased levels”. In addition, in assay [2] (setting [4]), the “collagen type I deposition” value is listed as “trend toward increased levels” and the “macrophages (ED-2)” value was “trend toward increased levels”. In addition, the “structural radiation injury as measured by Radiation Injury Score” value in assay [3] is given as “less”.
